# Measured values from patent publication EP0526502B1, “PHENOLIC AMINE DEPIGMENTING AND ANTIMELANOMA AGENTS” (The Governors of the University of Alberta, priority 1990, dated 1991).
# Values joined by “and” are separate entries in the source; they are usually repeats but may differ in a detail not shown here. Identical values can stand only once.
# Legend:
# B16F10 melanoma = experiment: Melanoma-colony formation in the lungs; assay type: in vivo, mice; settings: 900 mg/kg i.p. daily for 14 days from day five; lungs excised day 26
# Protocol: Murine B16F10 melanoma cell line with a strong metastatic property to form tumour colonies in the lungs was obtained from Dr. Longenecker, Department of Immunology, University of Alberta. Such cell line is well recognized and readily available as reported in Miura et al, supra. The cells were grown in T-75 flasks in dulbecco's MEM available from Gipco Lab Inc., Grand Island, New York, supplemented with 10% fetal calf serum, also obtained from Gipco, penicillin (100 »/ml) and streptomycin (100 »g/ml). The cells were incubated at 37°C in humidified atmosphere of 5% CO₂ in air. The cells were harvested by applying a thin layer of 0.25% trypsin solution in EDTA, washed and resuspended in cold N saline solution. Viable cells were identified by trypan blue dye exclusion and counted. The cell suspension was diluted to the desired concentration. Three groups of mice were studied using a control 4-S-CAP and N-Ac-4-S-CAP as the active agents in the treatment. On day zero, the mice were inoculated via the lateral tail vein with 5 x 10⁴ cells in 0.2 ml of N saline. The test drugs were dissolved in normal saline, sterilized by membrane filtration, and administered in a dose of 300 mg/Kg (4-S-CAP) or 900 mg/Kg (N-Ac-4-S-CAP); starting on day five, the control solution or drug was injected i.p. daily for 14 days. On day 26, the mice were killed by cervical dislocation, their lungs were removed, and the number of melanoma colonies was counted under a dissecting microscope. The results were expressed as percentage reduction in the number of colonies: [a - b/a] x 100, where a = colonies in control group and b = colonies in experimental group.
# melanocytes = experiment: Light and electron microscopy of melanocytes in regrowing hair follicles; assay type: in vivo, mice
# Protocol: In six groups of 4 mice (1 control and 1 for each compound) were treated daily with the control or compound injected i.p. The compounds tested were 4-S-CAP, N-Ac-4-S-CAP and α-Me-4-S-CAP. Samples of skin and regrowing hair follicles were excised under brief general anaesthesia on day 10 (late anagen phase), fixed in Karnovsky's solution (2.5% glutaraldehyde and 2.5% paraformaldehyde in 0l1 M cacodylate buffer), and refixed in 1% osmium tetroxide in cadodylate buffer. Tissues were stained en bloc with 1.5% uranyl acetate in o.1 M veronal buffer for 30min, dehydrated in graded ethanol solutions, embedded in epoxy resin, and sectioned with a Potter-Blum ultramicrotome MT II. Sections 1.0 »m thick were stained with methylene blue for light microscopy, thin sections were stained with led citrate for electron microscopy.
# follicular melanocytes = experiment: Depigmentation of new hair after plucking (PTCA/eumelanin content of hair follicles); assay type: in vivo, C57BL/6J black mice; settings: for PTCA Content / Depigmentation: 300 mg/kg daily for 14 days, hair harvested day 22; for Depigmentation: 300 mg/kg
# Protocol: Breeding pairs of C57BL/6J black mice were purchased from Jackson Laboratory, Bar Harbor, Maine. Female progeny were used in this testing when approximately 8 weeks old and weighing 17 grams.
# Black hairs were plucked manually from the back of the mice to initiate new anagen growth and activate follicular melanocytes with increased tyrosinase activity. Thirty mice were randomized into 6 groups of 5 (1 control and 1 for each compound). Starting on day 1, daily for 14 days the agent was injected i.p. or was infiltrated s.c. in an area where hair follicles had been plucked; the dose was 300 mg/kg body weight.
# In the same 30 mice, hair follicles were harvested on day 22 (early telogen phase) and their eumelanin content analyzed. Details of the assay, including chemical degration of melanin and high-performance liquid chromatography (HPLC) were as described in Ito et al, "Quantitative Analysis of Eumelanin and Pheomelanin in Hair and Melanosomes" J. Invest. Dermatol 80:268-272, 1983. Briefly, a 10-mg hair sample is homogenized in water at a concentration of 10 mg/ml; the 200-»l homogenate is transferred to a screw-capped test tube, mixed with 1M H₂SO₄ (800 »L) and oxidized with 3% KMnO₄. The product, pyrrole-2,3,5-tricarboxylic acid (PTCA), is analyzed by HPLC with a UVL detector; samples are measured in duplicate. The eumelanin content is expressed as PTCA (ng/mg) against the PCTA content of BALB/c albino mice as control (≦ 10 ng/mg, the background value with our method, in which 1 ng corresponds roughly to a eumelanin content of 50 ng), and the degree of depigmentation is expressed as a percentage: (PTCA content of control sampleminusPTCA content of experimental sample)/(PCTA content of control sample) x 100 [formula] .
compound,measurement,setting,value
"CC(=O)NCCSc1ccc(O)cc1 [N-Ac-4-S-CAP, N-ACETYL-4-S-CYSTEAMINYLPHENOL]",No. of Colonies % control,B16F10 melanoma,25% and 24.9%
same,No. of Colonies per pair of lungs,B16F10 melanoma,21.5 ± 10.8
same,light microscopy of hair follicles: functioning melanocytes and melanin pigments,"melanocytes; i.p. daily, day 10 (late anagen phase)",neither functioning melanocytes nor melanin pigments remained in the follicles
same,electron microscopy of hair follicles: melanocytes and melanosomes,melanocytes; i.p. injection for 10 days,no melanocytes or melanosomes were visible
same,PTCA Content,follicular melanocytes; Route s.c.,30.8 ± 9.1 ng/mg
same,Depigmentation,follicular melanocytes; Route s.c.,97.2%
same,PTCA Content,follicular melanocytes; Route: i.p.,26.0 ± 10.3 ng/mg
same,Depigmentation,follicular melanocytes; Route: i.p.,97.6%
same,visible pigmentation of new hair,"follicular melanocytes; i.p. or s.c. route, result in words",almost pure white as in albino mice
